# What was measured:
# Haemonchus contortus = assay: In vivo nematode test Haemonchus contortus/sheep; settings: sheep infected with Haemonchus contortus; applied orally and/or intravenously as pure active compound; complete cessation of worm egg excretion with the faeces after treatment
# Protocol: Haemonchus contortus/Sheep Sheep which had been experimentally infected with Haemonchus contortus were treated after the prepotency time of the parasite had elapsed. The active compounds were applied orally and/or intravenously as pure active compound. The degree of effectiveness is determined by quantitatively counting the worm eggs which have been excreted with the faeces before and after the treatment. A complete cessation of egg excretion after the treatment means that the worms have been aborted or damaged to such an extent that they no longer produce eggs (dosis […]). Active compounds tested and effective dosage rates can be seen from the table which follows
# Heterakis spumosa = assay: In vivo nematode test Heterakis spumosa/mouse; settings: mice infected with Heterakis spumosa; dosage rate 50 mg/kg, applied orally and/or intraperitoneally on day 46 after infection; adult parasites in colon and caecum counted on day 54, compared with untreated control
# Excerpt: Mice are experimentally infected with nematodes of the variety Heterakis spumosa. In order to infect the mice, 90 embryonate Heterakis spumosa eggs are applied orally.
# After the prepotency time had elapsed, the suspended active compounds are applied orally and/or intraperitoneally on the 46th day after the infection.
# The mice are selected on the 54th day after the infection. The adult parasites in the colon and caecum are counted with the aid of a microscope. The treatment results in the doses group are compared with the untreated control group.
# Active compounds tested and effective dosage rates (dosis effectiva) can be seen from the table which follows.
Compound,Effective dosage rates in [mg/kg] (dosis effectiva) (Haemonchus contortus),Reduction rate in [%] (Heterakis spumosa)
Cyclo(-N-methyl-L-leucyl-D-thiolactyl-N-methyl-L-leucy-D-4-(pyrid-2-yl-methoxy)-phenylthiolactyl-N-methyl-L-leucy-D-thiolactyl-N-methyl-L-leucyl-D-4-(pyrid-2-yl-methoxy)-phenylthiolactyl-) [Example 6],0.01,
"CC(C)CC1C(=O)OC(Cc2ccc(N3CCOCC3)cc2)C(=O)N(C)C(CC(C)C)C(=O)OC(C)C(=O)N(C)C(CC(C)C)C(=O)OC(Cc2ccc(N3CCOCC3)cc2)C(=O)N(C)C(CC(C)C)C(=O)OC(C)C(=O)N1C [Cyclo(-MeLeu-D-Lac-MeLeu-D-4-MorPhLac-)2, cyclo(-N-methyl-L-leucyl-D-lactyl-N-methyl-L-leucyl-D-4-N-morpholino-phenyllactyl-N-methyl-L-leucyl-D-lactyl-N-methyl-L-leucyl-D-4-N-morpholinophenyllactyl-), reference compound]",0.05,
Cyclo(-N-methyl-L-leucyl-D-thiolactyl-N-melhyl-L-leucyl-D-4-N-morpholinophenylthiiolactyl-N-methyl-L-leucyl-D-thiolactyl-N-methyl-L-leucyl-D-4-N-morpholinophenylthiolactyl-) [Example 3],0.025,
Cyclo(N-methyl-L-leucyl-D-thiolactyl-N-methyl-L-leucyl-D-phenyllactyl-N-methyl-L-leucyl-D-lactyl-N-methyl-L-leucyl-D-phenyllactyl-) [Example 7],0.01,
Cyclo(-N-methyl-L-leucyl-D-thiolactyl-N-methyl-L-leucyl-D-phenylthiolactyl- N-methyl-L-leucyl-D-thiolactyl-N-methyl-L-leucyl-D-phenylthiolactyl-) [Example 1],0.10,100
Cyclo(N-methyl-L-leucyl-D-thiolactyl-N-methyl-L-leucyl-D4-fur-2-yl-methoxy)-phenyllactyl-N-methyl-L-leucyl-D-lactyl-N-methyl-L-leucyl-D-phenyllactyl-) [Example 12],0.01,
Cyclo(N-methyl-L-leucyl-D-thiolactyl-N-methyl-L-leucyl-D-4-N-morpholinophenyllactyl-N-methyl-L-leucyl-D-lactyl-N-methyl-L-leucyl-D-4-N-morpholinophenyllactyl-) [Example 8],0.01,
Cyclo(-N-methyl-L-leucyl-D-thiolactyl-N-methyl-L-leucyl-D-4-(pyrid-2-yl-methoxy)-phenyllactyl-N-methyl-L-keucyl-D-lactyl-N-methyl-L-leucyl-D-4-(pyrid- 2-yl-methoxy)-phenyllactyl-) [Example 10],0.01,
"CC(C)C[C@H]1C(=O)O[C@H](Cc2ccccc2)C(=O)N(C)[C@@H](CC(C)C)C(=O)O[C@H](C)C(=O)N(C)[C@@H](CC(C)C)C(=O)O[C@H](Cc2ccccc2)C(=O)N(C)[C@@H](CC(C)C)C(=O)O[C@H](C)C(=O)N1C [PF 1022A, cyclo(-N-methyl-L-leucyl-D-lactyl-N-methyl-L-leucyl-D-phenyllactyl-N-methyl-L-leucyl-D-lactyl-N-methyl-L-leucyl-D-phenyllactyl-), reference compound]",0.25,0

# Reference: patent US6265537A, “Thiodepsipeptides for combating endoparasites and a method for producing the same” (Bayer Aktiengesellschaft, priority 1997, dated 2001)
